The values below come from patent US4298745A, “Hydantoin derivatives” (Beecham Group Limited, priority 1978, dated 1981).

The subject of test [1] is 5-hydroxytryptamine induced bronchoconstriction. The test can be described thus: inhibition of 5-hydroxytryptamine induced bronchoconstriction in the anaesthetised, artificially respired guinea pig (Konzett-Rossler preparation). Type of test: in vivo. The following applies: for ED50: Cavia porcellus, iv. As to the method:
1. The compounds were examined for their ability to inhibit 5-hydroxytryptamine induced bronchoconstriction in the anaesthetised, artificially respired guinea pig (Konzett-Rossler preparation) The compounds were administered intravenously.
The test for bronchodilator activity used in `Bronchodilator activity` method 1 above was used with three test animals for the comparison testing of Compound 5 against the compound 5-(6-carboxyhexyl)-1-(3-hydroxy-4,4-dimethyloctyl)hydantoin (A) highlighted in German Offenlegungsschrift No. 2724948 for its anti-bronchoconstriction activity.

The test system of test [2] is bronchoconstriction induced by a histamine aerosol. The test can be described thus: protection of conscious guinea pigs against bronchoconstriction induced by a histamine aerosol (Herxheimer test). Type of test: in vivo, guinea pig. To be noted: Table B, compound by aerosol. The text has this:
2. The compounds were also examined for their ability to protect conscious guinea pigs against bronchoconstriction induced by a histamine aerosol (Herxheimer test). In these experiments the compounds were adminstered by aerosol.

Test [3] deals with collagen induced platelet aggregation in human platelet rich plasma. Description: inhibition of platelet aggregation induced in vitro by collagen in human platelet rich plasma. Type of test: cell-based. The following applies: Table C, read-out: IC50 against collagen induced aggregation. The text has this:
The compounds were examined for their ability to inhibit platelet aggregation induced in vitro by collagen in human platelet rich plasma.

For test [4], the system named is indomethacin induced gastric damage. Description: anti-ulcer activity: inhibition of indomethacin induced gastric damage in the rat. Type of test: in vivo. The following applies: 100 mg/kg orally. As to the method: Anti-ulcer activity was assessed by the inhibition of indomethacin induced gastric damage in the rat according to the method of Eleghe (1974) Israeli J. Med. Sci. IO, 1451. Rats were starved overnight, given 15 mg/kg indomethacin subcutaneously and sacrificed 4 hours later. Stomachs were reflated with n.saline, cut along the greater curvature pinned out and scored for gastric damage by the following system.
Score 1-3--according to degree of erythema and slight haemorrhage.
Score 4-6--according to degree of mucosal erosion.
Score 7-9--according to depth of gastric damage.
Groups of 7 rats were used for each treatment and the test compound or vehicle were administered 30 minutes prior to giving the indomethacin. Dose of test compound was 100 mg/kg orally and control groups receiving vehicle only were set up simultaneously. Mean values for each treatment were obtained using the above scoring system and the Mann Witney test applied for significance of difference between the values obtained with the treatments.

Test [5] concerns arrhythmia in electrostimulation of the right ventricle. The test can be described thus: anti-arrhythmic activity: increase of the voltage required to produce arrhythmia in electrostimulation of the right ventricle. Type of test: in vivo, guinea pig. To be noted: Table D; anaesthetised guinea pigs, 32.0 mg/kg I.d.; p<0.5 (so in the source). The text has this:
Compound 5 was examined for its ability to increase the voltage required to produce arrhythmia in electrostimulation of the right ventricle in anaesthatised guinea pigs.

Setting [6] is: Table A, anaesthetised guinea pig, i.v., read-out: ED50 against 5-hydroxytryptamine induced bronchoconstriction.
The mark [7] stands for this setting: Table E, comparison testing, three test animals, guinea pig, read-out: ED50 (mean).

Read-outs that look alike come from different tables or passages of the source.

A word on the ED50: it is the dose at which the effect has come halfway, by size or by number of responders. In general, IC50 refers to the point on the concentration scale where inhibition reaches its midpoint. As to `CCCCC(C)C(C)(O)CCN1C(=O)N(C)C(=O)C1CC=CCCCC(=O)O` (stereo not drawn) [Compound 4, 1-(3'-hydroxy-3'-methyl-4'-methyl-n-octyl)-3-methyl-5(6"-carboxy-n-hex-2"- enyl)hydantoin], the ED50 in test [1] (setting [6]) was found to be 0.6 µg/kg. Also, the “Activity, Aerosol administration (Herxheimer test)” value in test [2] amounted to 0.5 µg/mL. The IC50 in test [3] turned out to be 28 µM. For the same molecule, in test [4] (30 minutes before 15 mg/kg indomethacin s.c., score 1-9, vehicle control 4.14±0.59, p<0.01), the “Mean Score ± S.E. of mean (gastric damage)” value is reported as 0.43±0.20. In addition, the “anti-ulcer activity (in words)” value in test [4] (compared with vehicle only treatment) was “reduced the mean ulcer score and therefore has significant anti-ulcer activity”.
Regarding `CCCCCCC(C)(O)CCN1C(=O)N(C)C(=O)C1CC=CCCCC(=O)O` (stereo not drawn) [Compound 5], the ED50 in test [1] (setting [6]) was found to be 1.3 µg/kg; in test [1] (setting [7]), 1.2 µg/kg. In addition, the “bronchodilator potency of compound 5 relative to Compound A” value in test [1] (comparison testing, Table E) is given as “at least an order of magnitude more potent”. Moreover, the “Activity, Aerosol administration (Herxheimer test)” value in test [2] was 1 µg/mL. The IC50 in test [3] was 22 µM. Besides, the “% increase of voltage ± SEM” value in test [5] was found to be 43.0 ± 7.0%.
With `CCCCC(C)(C)C(O)CCN1C(=O)NC(=O)C1CCCCCCC(=O)O` (stereo not drawn) [Compound A, 5-(6-carboxyhexyl)-1-(3-hydroxy-4,4-dimethyloctyl)hydantoin, reference compound], the ED50 in test [1] (setting [7]) was 24.6 µg/kg.
